This passage reports fold change (FC) and inhibition results from ChEMBL document CHEMBL5653631, “A Potent and Selective ULK1 Inhibitor Suppresses Autophagy and Sensitizes Cancer Cells to Nutrient Stress” (iScience, 2018).

In test [1] the target is T1, Dual specificity tyrosine-phosphorylation-regulated kinase 3 (Homo sapiens) (UniProt O43781).
T1 sequence (whole entry): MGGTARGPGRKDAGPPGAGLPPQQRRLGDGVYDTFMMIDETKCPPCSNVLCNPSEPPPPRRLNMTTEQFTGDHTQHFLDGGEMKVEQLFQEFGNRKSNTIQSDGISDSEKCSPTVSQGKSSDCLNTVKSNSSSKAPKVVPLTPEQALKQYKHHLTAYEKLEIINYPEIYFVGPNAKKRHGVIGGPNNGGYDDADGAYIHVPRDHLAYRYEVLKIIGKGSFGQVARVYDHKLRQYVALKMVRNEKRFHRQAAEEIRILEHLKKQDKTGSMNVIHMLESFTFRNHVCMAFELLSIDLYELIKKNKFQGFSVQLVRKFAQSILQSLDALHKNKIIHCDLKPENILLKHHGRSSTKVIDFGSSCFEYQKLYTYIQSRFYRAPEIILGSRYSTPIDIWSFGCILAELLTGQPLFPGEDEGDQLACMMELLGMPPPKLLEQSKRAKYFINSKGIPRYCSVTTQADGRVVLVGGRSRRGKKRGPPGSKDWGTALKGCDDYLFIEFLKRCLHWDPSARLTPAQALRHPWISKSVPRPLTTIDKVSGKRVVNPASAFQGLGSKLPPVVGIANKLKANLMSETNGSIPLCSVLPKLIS
Nature of the test: Inhibition of human recombinant DYRK3 at 40 nM related to control ULK1.

Test [2] has as its target Serine/threonine-protein kinase PAK 2 (Homo sapiens) (UniProt Q13177). Description: Inhibition of human recombinant PAK2 at 40 nM related to control ULK1.
Test [3] addresses Serine/threonine-protein kinase WNK3 (Homo sapiens) (UniProt Q9BYP7). Description: Inhibition of human recombinant Wnk3 at 40 nM in presence of ATP by radiometric assay relative to control.
Test [4] concerns the target Homeodomain-interacting protein kinase 3 (Homo sapiens) (UniProt Q9H422). Description: Inhibition of human recombinant HIPK3 at 40 nM related to control ULK1.
Test [5] concerns the target Proto-oncogene tyrosine-protein kinase ROS (Homo sapiens) (UniProt P08922). Description: Inhibition of human recombinant ROS at 500 nM related to control ULK1.
Test [6] has as its target T2, Inhibitor of nuclear factor kappa-B kinase subunit beta (Homo sapiens) (UniProt O14920).
T2 sequence (whole entry): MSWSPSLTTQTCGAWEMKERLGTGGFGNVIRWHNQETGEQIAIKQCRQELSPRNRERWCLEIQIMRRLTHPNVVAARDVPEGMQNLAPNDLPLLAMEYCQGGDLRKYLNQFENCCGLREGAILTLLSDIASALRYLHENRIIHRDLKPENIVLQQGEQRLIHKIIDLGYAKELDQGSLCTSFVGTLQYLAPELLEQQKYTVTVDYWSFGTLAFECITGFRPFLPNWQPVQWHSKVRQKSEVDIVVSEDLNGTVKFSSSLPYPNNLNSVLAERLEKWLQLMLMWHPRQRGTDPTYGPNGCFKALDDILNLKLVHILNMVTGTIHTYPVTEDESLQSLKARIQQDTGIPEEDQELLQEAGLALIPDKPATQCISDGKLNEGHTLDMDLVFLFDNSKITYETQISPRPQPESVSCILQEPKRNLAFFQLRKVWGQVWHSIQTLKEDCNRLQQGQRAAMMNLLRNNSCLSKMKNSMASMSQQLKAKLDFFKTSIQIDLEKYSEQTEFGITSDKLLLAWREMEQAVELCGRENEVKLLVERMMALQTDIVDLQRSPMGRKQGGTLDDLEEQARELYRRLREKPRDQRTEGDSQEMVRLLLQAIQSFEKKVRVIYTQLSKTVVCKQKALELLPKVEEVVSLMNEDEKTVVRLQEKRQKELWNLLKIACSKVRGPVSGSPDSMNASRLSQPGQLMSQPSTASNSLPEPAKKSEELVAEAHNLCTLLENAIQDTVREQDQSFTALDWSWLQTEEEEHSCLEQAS
Description: Inhibition of human recombinant IKKb at 500 nM related to control ULK1.

The target in test [7] is Tyrosine-protein kinase Blk (Homo sapiens) (UniProt P51451). Description: Inhibition of human recombinant BLK at 500 nM related to control ULK1.
For test [8], the target named is Rho-associated protein kinase 1 (Homo sapiens) (UniProt Q13464). Description: Inhibition of human recombinant ROCK1 at 500 nM related to control ULK1.
Test [9] has as its target Cyclin-dependent kinase 18 (Homo sapiens) (UniProt Q07002). Description: Inhibition of human recombinant PCTAIRE3 at 15 nM related to control ULK1.
Test [10] addresses Fibroblast growth factor receptor 4 (Homo sapiens) (UniProt P22455). Nature of the test: Inhibition of human recombinant FGFR4 at 15 nM in presence of ATP by radiometric assay relative to control.
The target of test [11] is MAP/microtubule affinity-regulating kinase 3 (Homo sapiens) (UniProt P27448). Nature of the test: Inhibition of human recombinant MARK3 at 15 nM in presence of ATP by radiometric assay relative to control.
Test [12] concerns the target Ribosomal protein S6 kinase alpha-6 (Homo sapiens) (UniProt Q9UK32). Description: Inhibition of human recombinant RSK4 at 15 nM in presence of ATP by radiometric assay relative to control.
Test [13] addresses T3, Phosphorylase b kinase gamma catalytic chain, liver/testis isoform (Homo sapiens) (UniProt P15735).
T3 sequence (whole entry): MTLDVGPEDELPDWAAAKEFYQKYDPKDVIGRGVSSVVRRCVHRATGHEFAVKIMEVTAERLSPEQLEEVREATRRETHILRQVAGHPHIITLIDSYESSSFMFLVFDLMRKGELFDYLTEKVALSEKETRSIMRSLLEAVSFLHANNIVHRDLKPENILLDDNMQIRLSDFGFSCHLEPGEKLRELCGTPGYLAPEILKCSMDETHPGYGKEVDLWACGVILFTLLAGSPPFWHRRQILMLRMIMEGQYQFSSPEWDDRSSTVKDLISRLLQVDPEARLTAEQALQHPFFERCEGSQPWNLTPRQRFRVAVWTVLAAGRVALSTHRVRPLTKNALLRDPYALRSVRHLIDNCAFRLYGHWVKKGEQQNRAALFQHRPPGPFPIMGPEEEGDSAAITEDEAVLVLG
Description: Inhibition of human recombinant PHKg2 at 15 nM in presence of ATP by radiometric assay relative to control.

For test [14], the target named is Serine/threonine-protein kinase PAK 5 (Homo sapiens) (UniProt Q9P286). Nature of the test: Inhibition of human recombinant PAK5 at 15 nM related to control ULK1.

SMILES strings stand for the structures.

Tyrosine-protein kinase Blk (Homo sapiens), sequence (P51451 2-505 limits assumed): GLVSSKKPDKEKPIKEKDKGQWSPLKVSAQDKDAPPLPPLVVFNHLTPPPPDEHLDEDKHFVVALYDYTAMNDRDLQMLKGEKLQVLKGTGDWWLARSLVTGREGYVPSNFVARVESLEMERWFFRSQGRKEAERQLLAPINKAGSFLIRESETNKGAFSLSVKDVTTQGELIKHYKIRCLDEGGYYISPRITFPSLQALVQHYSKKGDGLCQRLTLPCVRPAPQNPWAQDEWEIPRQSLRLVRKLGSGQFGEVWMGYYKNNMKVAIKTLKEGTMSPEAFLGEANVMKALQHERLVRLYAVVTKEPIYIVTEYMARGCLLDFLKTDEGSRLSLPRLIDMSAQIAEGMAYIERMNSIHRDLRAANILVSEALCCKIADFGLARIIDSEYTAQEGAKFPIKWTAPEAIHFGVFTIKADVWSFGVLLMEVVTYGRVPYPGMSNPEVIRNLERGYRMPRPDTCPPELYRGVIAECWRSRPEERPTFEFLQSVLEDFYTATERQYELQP
Ribosomal protein S6 kinase alpha-6 (Homo sapiens), sequence (Q9UK32 whole entry, canonical isoform): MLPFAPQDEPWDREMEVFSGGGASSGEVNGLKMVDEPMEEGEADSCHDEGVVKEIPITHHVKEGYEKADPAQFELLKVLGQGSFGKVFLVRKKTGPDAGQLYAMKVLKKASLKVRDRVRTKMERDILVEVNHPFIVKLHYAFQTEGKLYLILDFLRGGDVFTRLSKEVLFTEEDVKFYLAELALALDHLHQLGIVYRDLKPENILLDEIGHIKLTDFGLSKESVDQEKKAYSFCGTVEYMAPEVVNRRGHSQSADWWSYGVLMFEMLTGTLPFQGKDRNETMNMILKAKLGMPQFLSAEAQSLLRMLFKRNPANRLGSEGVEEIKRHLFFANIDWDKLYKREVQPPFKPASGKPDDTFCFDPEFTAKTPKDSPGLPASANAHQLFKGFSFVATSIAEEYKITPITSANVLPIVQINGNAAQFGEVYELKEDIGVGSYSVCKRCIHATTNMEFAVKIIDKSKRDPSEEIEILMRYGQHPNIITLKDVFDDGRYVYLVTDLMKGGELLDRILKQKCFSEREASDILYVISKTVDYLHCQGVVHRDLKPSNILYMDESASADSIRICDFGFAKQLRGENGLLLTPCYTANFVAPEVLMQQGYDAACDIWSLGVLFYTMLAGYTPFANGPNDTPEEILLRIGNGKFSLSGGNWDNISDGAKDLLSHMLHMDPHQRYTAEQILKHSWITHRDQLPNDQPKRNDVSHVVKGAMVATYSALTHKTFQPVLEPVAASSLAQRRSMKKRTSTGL
Serine/threonine-protein kinase WNK3 (Homo sapiens), sequence (Q9BYP7 whole entry): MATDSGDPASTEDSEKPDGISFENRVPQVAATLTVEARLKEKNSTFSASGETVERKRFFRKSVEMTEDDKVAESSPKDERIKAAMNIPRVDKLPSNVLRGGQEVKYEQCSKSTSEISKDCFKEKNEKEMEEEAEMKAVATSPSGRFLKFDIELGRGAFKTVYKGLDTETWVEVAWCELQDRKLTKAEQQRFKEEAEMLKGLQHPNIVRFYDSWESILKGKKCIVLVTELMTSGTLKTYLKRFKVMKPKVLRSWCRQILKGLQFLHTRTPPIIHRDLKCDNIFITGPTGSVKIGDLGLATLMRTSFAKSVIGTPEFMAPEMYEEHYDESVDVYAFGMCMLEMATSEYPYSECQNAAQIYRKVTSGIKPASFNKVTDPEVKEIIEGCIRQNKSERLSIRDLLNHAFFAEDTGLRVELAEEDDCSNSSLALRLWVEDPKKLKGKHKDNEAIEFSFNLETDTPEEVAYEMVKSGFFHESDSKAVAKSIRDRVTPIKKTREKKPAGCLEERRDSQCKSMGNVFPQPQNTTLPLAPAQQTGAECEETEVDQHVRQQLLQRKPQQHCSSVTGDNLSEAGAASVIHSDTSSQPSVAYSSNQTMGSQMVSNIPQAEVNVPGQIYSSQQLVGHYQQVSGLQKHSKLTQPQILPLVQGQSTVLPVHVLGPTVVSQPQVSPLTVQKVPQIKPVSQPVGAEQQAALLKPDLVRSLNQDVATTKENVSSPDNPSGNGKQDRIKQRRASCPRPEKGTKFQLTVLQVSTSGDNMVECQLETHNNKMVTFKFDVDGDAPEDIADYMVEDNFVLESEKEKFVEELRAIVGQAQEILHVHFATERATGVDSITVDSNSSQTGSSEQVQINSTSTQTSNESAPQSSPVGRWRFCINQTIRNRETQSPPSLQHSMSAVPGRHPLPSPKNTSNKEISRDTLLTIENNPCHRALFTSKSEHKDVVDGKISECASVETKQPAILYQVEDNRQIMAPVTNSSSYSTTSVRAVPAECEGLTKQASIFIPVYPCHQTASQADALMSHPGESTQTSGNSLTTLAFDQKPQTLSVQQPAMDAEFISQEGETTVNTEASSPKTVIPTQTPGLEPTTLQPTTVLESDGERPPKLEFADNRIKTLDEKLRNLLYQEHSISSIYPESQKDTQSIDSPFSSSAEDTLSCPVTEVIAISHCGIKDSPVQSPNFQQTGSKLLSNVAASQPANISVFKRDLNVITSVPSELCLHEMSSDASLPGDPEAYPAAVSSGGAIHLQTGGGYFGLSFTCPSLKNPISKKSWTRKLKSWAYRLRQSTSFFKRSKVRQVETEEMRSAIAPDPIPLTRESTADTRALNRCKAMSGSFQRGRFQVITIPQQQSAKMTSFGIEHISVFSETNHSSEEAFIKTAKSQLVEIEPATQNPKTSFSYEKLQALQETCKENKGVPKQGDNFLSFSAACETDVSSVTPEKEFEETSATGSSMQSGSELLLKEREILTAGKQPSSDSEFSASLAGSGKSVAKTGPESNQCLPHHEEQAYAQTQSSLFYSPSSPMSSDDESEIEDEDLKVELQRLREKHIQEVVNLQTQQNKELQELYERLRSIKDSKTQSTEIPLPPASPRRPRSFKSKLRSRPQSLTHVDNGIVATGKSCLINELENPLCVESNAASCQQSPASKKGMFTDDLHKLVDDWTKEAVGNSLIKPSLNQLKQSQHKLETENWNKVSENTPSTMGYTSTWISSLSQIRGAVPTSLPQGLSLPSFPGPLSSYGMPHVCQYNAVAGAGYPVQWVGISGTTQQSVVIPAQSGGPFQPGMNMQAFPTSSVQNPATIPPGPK
Homeodomain-interacting protein kinase 3 (Homo sapiens), sequence (Q9H422 whole entry, looked up): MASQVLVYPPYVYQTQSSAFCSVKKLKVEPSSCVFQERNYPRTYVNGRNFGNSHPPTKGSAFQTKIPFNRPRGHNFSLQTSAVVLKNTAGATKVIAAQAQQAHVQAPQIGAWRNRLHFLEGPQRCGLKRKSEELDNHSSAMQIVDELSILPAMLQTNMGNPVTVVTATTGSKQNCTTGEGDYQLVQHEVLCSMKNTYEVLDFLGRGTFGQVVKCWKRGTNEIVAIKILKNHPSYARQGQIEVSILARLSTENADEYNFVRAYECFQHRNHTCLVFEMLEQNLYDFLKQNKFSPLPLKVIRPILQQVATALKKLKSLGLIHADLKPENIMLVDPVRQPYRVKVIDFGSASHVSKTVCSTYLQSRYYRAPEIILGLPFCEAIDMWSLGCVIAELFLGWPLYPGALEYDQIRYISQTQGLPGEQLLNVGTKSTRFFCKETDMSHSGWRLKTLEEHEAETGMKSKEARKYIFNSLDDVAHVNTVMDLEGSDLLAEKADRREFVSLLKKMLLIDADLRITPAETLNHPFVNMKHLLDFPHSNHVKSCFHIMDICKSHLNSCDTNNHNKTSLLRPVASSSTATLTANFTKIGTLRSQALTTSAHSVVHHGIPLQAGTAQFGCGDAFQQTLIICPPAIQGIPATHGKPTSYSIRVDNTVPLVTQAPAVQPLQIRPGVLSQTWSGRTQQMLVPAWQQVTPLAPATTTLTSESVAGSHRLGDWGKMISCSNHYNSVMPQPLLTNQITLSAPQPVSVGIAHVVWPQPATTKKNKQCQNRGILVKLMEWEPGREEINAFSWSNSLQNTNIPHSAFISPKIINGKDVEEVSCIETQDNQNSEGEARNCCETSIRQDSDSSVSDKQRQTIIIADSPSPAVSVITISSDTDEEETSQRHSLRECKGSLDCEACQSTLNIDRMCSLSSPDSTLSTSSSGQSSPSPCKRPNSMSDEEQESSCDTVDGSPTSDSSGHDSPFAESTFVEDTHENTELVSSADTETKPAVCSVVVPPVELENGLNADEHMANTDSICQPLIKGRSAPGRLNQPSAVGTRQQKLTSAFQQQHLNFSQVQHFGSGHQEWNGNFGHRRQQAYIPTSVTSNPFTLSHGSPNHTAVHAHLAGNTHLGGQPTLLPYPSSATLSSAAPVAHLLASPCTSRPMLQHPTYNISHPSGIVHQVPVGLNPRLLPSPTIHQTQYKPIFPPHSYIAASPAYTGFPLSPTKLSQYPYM
MAP/microtubule affinity-regulating kinase 3 (Homo sapiens), sequence (P27448 whole entry, looked up): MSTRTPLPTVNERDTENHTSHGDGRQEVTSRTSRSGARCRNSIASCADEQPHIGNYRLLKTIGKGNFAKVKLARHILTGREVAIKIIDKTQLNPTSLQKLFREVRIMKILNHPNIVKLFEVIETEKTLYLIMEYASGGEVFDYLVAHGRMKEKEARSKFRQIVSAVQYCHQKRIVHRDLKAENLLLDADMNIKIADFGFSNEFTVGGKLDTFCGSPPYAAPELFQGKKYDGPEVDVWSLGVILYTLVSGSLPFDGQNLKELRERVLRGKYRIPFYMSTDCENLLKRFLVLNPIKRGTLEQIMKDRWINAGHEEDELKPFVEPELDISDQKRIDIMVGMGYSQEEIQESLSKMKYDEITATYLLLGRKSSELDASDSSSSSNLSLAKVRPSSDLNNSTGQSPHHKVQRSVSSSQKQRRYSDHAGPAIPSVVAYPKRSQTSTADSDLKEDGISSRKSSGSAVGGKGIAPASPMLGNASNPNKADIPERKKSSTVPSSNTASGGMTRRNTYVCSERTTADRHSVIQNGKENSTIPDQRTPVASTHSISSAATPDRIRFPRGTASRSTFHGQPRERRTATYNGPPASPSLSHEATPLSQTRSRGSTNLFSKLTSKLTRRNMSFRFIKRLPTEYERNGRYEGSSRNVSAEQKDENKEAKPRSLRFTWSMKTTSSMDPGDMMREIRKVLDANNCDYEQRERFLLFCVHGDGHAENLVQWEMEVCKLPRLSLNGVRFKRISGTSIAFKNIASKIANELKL

The inhibition is the change of the read-out against control, counted positive when it falls. In the case of `O=C(N[C@@H](C1CC1)C(F)(F)F)c1cc(-c2cnn3cc(-c4ccc(F)cc4)cnc23)cs1`, the fold change (FC) is 0.41 in test [1], 0 in test [2] and 0.07 in [4]. In addition, the inhibition in [3] came out at 3%.

On to `CNC(=O)c1ccccc1Oc1nc(Nc2cc(OC)c(OC)c(OC)c2)ncc1Br`, for which the fold change (FC) in test [5] turned out to be 0; in test [6], 0.03; in [7] it was 0.39; in test [8] it was 0.

For `CC(C)[C@H](NC(=O)c1cc(-c2cnn3cc(-c4ccc(OCCN5CCCCC5)cc4)cnc23)cs1)C(F)(F)F`, the fold change (FC) in test [9] was 0.76; in test [14], 0. In addition, the inhibition in [10] came out at 0%; in test [11], 63%; in test [12], 0%; in test [13], 9%.
